The source of these data is BindingDB's records for patent US10227314 (Sova Pharmaceuticals, 2019).

Where only a bound is given, the exact number is not on record here.

The target in the assay is Cystathionine gamma-lyase (Homo sapiens, UniProt P32929). Put plainly: CSE In Vitro Assay.
Sequence of Cystathionine gamma-lyase (P32929 whole entry): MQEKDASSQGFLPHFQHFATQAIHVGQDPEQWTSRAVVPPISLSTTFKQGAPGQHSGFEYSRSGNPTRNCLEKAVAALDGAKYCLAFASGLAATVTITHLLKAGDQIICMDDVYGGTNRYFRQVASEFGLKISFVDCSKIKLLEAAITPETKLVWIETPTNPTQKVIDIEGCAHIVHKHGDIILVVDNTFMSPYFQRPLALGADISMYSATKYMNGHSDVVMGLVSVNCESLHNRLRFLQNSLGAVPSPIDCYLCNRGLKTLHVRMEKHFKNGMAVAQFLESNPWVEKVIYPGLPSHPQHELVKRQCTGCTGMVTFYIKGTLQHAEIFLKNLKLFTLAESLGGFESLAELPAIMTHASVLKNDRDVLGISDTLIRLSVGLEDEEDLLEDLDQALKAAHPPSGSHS

For orientation: IC50 means the concentration that inhibits the measured activity by half. On to `C#CC[C@H](N)c1nnn[nH]1` [US10227314, Example 2], for which the IC50 is less than 25 µM.

`N#CCC(N)c1nnn[nH]1` (configuration not stated) [US10227314, Example 1]: the IC50 is more than 100 µM.
